Measured values as given in patent US5648379A (priority 1990, dated 1997).
In brackets after ≈: the same amount, converted by molar mass.

Key:
[1] = tested on: Vibrio cholerae neuraminidase; conditions: literature; cited from earlier work
[2] = tested on: influenza A/Singapore/1/57 (H2N2); assay: microbe, parasite or virus in culture; type: cell-based; conditions: H2N2, MDCK, 72 h, read-out: IC50 Plaque Reduction, Influenza A
[3] = target: sheep neuraminidase; assay: In vitro inhibition of sheep neuraminidase; type: biochemical; conditions: pH 4.5
[4] = tested on: H2N2 influenza A virus (A/Sing/1/57); type: in vivo, mice
[5] = tested on: Influenza B/Victoria/102/85; assay: microbe, parasite or virus in culture; type: cell-based; conditions: MDCK, 72 h, read-out: IC50 Plaque Reduction, Influenza B
[6] = tested on: influenza virus; assay: microbe, parasite or virus in culture; type: cell-based; conditions: unidentified influenza virus, read-out: IC50 plaque reduction
[7] = Effective dose in vivo (statement in description); conditions: compared with DANA

## CC(=O)NC1C(O)CC(C(=O)O)OC1C(O)C(O)CO (centres unmarked)
[1]
  inhibition of Vibrio cholerae neuraminidase: did not inhibit

## CC(=O)N[C@H]1[C@H]([C@H](O)[C@H](O)CO)OC(C(=O)O)=C[C@@H]1N=C(N)N [Compound 7, Ammonium 5-Acetamido-4-guanidino-2,3,4,5-tetradeoxy-D-glycero-D-galacto-non-2-enopyranosonate]
[2]
  IC50: 1.6 µM
[3]
  Ki: > 10000 µM
[4]; Experiment 2, 12.5 mg/kg intranasal, days 1-3
  % AUC (lung virus titre, compared to untreated mice): 0.03%
[4]; intranasal, before and during challenge, 1 to 3 days after infection
  titre of virus in lung tissue: reduced the titre of virus in lung tissue
[5]
  IC50: 1.6 µM

## COC(=O)C1=C[C@H](O)[C@@H](NC(C)=O)[C@H]([C@H](O)[C@H](O)CO)O1 [methyl ester of DANA]
[6]
  IC50: 50 to 100 µg/mL (≈ 164 to 328 µM)
[7]
  effective dose, in words: effective at proportionally higher dose
